Experimental data taken from PubChem BioAssay (NCI).
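Interpolation was linear, between the two tested concentrations surrounding the appropriate level; five concentrations were tested over 48 hours in 96-well plates. At the GI50, growth is halved. TGI marks complete inhibition of growth.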

Key:
Experiment in all cases: DTP human tumour cell line panel, 48 h
NCI-H23 lung = system: NCI-H23 lung
NCI-H460 lung = system: NCI-H460 lung
NCI-H522 lung = system: NCI-H522 lung
NCI/ADR-RES ovarian = system: NCI/ADR-RES ovarian
OVCAR-3 ovarian = system: OVCAR-3 ovarian
OVCAR-4 ovarian = system: OVCAR-4 ovarian
OVCAR-5 ovarian = system: OVCAR-5 ovarian
OVCAR-8 ovarian = system: OVCAR-8 ovarian
PC-3 prostate = system: PC-3 prostate
RPMI-8226 leukemia = system: RPMI-8226 leukemia
RXF 393 renal = system: RXF 393 renal
SF-268 CNS = system: SF-268 CNS
SF-295 CNS = system: SF-295 CNS
SF-539 CNS = system: SF-539 CNS
SK-MEL-2 melanoma = system: SK-MEL-2 melanoma
SK-MEL-28 melanoma = system: SK-MEL-28 melanoma
SK-MEL-5 melanoma = system: SK-MEL-5 melanoma
SK-OV-3 ovarian = system: SK-OV-3 ovarian
SN12C renal = system: SN12C renal
SNB-19 CNS = system: SNB-19 CNS
SNB-75 CNS = system: SNB-75 CNS
SR leukemia = system: SR leukemia
SW-620 colon = system: SW-620 colon
T-47D breast = system: T-47D breast
TK-10 renal = system: TK-10 renal
U251 CNS = system: U251 CNS
UACC-257 melanoma = system: UACC-257 melanoma
UACC-62 melanoma = system: UACC-62 melanoma
UO-31 renal = system: UO-31 renal

C=C1CCC2C3(C)COC(c4ccc(N(C)C)cc4)OC3CCC2(C)C1C/C=C1/C(=O)OCC1O (stereo not drawn)
GI50 (NCI-H23 lung): 4.37 µM
TGI (NCI-H23 lung): 15.7 µM
GI50 (NCI-H460 lung): 4.1 µM
TGI (NCI-H460 lung): 16.5 µM
GI50 (NCI-H522 lung): 3.22 µM
TGI (NCI-H522 lung): 14 µM
GI50 (NCI/ADR-RES ovarian): 3.83 µM
TGI (NCI/ADR-RES ovarian): 43.5 µM
GI50 (OVCAR-3 ovarian): 1960 nM
TGI (OVCAR-3 ovarian): 3.98 µM
GI50 (OVCAR-4 ovarian): 2500 nM
TGI (OVCAR-4 ovarian): 8.98 µM
GI50 (OVCAR-5 ovarian): 7.7 µM
TGI (OVCAR-5 ovarian): 20 µM
GI50 (OVCAR-8 ovarian): 3.78 µM
TGI (OVCAR-8 ovarian): 18.9 µM
GI50 (PC-3 prostate): 2320 nM
TGI (PC-3 prostate): 9.83 µM
GI50 (RPMI-8226 leukemia): 1230 nM
TGI (RPMI-8226 leukemia): 3.8 µM
GI50 (RXF 393 renal): 1970 nM
TGI (RXF 393 renal): 4.06 µM
GI50 (SF-268 CNS): 3.78 µM
TGI (SF-268 CNS): 14.4 µM
GI50 (SF-295 CNS): 6 µM
TGI (SF-295 CNS): 20 µM
GI50 (SF-539 CNS): 8.07 µM
TGI (SF-539 CNS): 20.5 µM
GI50 (SK-MEL-2 melanoma): 5.15 µM
TGI (SK-MEL-2 melanoma): 13.7 µM
GI50 (SK-MEL-28 melanoma): 2340 nM
TGI (SK-MEL-28 melanoma): 5.4 µM
GI50 (SK-MEL-5 melanoma): 7.2 µM
TGI (SK-MEL-5 melanoma): 20.3 µM
GI50 (SK-OV-3 ovarian): 17 µM
TGI (SK-OV-3 ovarian): 50.4 µM
GI50 (SN12C renal): 2520 nM
TGI (SN12C renal): 7.98 µM
GI50 (SNB-19 CNS): 16.4 µM
TGI (SNB-19 CNS): 32.3 µM
GI50 (SNB-75 CNS): 1940 nM
TGI (SNB-75 CNS): 7.97 µM
GI50 (SR leukemia): 1150 nM
TGI (SR leukemia): 3.77 µM
GI50 (SW-620 colon): 1950 nM
TGI (SW-620 colon): 4.25 µM
GI50 (T-47D breast): 6.91 µM
TGI (T-47D breast): 26.3 µM
GI50 (TK-10 renal): 8 µM
TGI (TK-10 renal): 21 µM
GI50 (U251 CNS): 2100 nM
TGI (U251 CNS): 5.21 µM
GI50 (UACC-257 melanoma): 13.1 µM
TGI (UACC-257 melanoma): 26.8 µM
GI50 (UACC-62 melanoma): 4.26 µM
TGI (UACC-62 melanoma): 16.9 µM
GI50 (UO-31 renal): 5.63 µM
TGI (UO-31 renal): 18.9 µM
